Assay results: ChEMBL document CHEMBL1949499, “Nicotinic acids: liver-targeted SCD inhibitors with preclinical anti-diabetic efficacy” (Bioorg Med Chem Lett, 2011); call rule not given here

What was measured:
[1] = biological target: T1, Stearoyl-CoA desaturase (Homo sapiens, UniProt O00767); experiment: Inhibition of human SCD1 expressed in human HepG2 cells assessed as conversion of [14C]stearic acid to [14C]oleic acid; type: cell-based
T1 sequence (O00767 whole entry): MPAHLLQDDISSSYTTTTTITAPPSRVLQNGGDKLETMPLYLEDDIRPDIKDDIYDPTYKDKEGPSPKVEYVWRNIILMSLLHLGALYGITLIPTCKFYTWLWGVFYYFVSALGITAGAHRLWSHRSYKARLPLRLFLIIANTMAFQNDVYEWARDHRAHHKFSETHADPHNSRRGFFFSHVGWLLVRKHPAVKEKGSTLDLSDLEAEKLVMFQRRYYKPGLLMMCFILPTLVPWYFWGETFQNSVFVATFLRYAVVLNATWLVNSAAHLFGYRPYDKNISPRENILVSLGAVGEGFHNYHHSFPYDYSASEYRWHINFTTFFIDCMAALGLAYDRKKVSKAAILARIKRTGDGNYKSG

[2] = biological target: T2, Acyl-CoA desaturase 1 (Rattus norvegicus, UniProt P07308); experiment: Inhibition of SCD1 in Sprague-Dawley rat hepatocytes assessed as conversion of [14C]oleic acid formation by HPLC analysis; type: cell-based, Hepatocyte
T2 sequence (P07308 whole entry): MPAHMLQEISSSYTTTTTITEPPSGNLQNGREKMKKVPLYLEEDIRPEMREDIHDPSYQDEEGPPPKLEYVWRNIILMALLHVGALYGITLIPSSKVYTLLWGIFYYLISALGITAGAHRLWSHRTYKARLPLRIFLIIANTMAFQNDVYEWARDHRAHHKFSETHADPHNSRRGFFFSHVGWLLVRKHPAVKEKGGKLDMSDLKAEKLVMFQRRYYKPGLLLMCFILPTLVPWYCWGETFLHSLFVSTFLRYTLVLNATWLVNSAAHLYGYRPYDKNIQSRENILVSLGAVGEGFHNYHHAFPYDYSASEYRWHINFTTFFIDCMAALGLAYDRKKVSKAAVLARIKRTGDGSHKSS

[3] = Drug uptake in C57/BL6 mouse skin at 30 mg/kg, po after 6 hrs; type: ADME, organism-based, Zone of skin; parameters: dose 30 mg/kg, route oral; conditions: read-out: Drug uptake
[4] = Drug uptake in C57/BL6 mouse left epididymal fat at 30 mg/kg, po after 24 hrs; type: ADME, organism-based, Epididymal fat pad; parameters: dose 30 mg/kg, route oral; conditions: male, read-out: Drug uptake
[5] = Drug uptake in C57/BL6 mouse cerebellum at 30 mg/kg, po after 24 hrs; type: ADME, organism-based; parameters: dose 30 mg/kg, route oral; conditions: read-out: Drug uptake
[6] = Plasma concentration in C57/BL6 mouse at 30 mg/kg, po after 24 hrs; type: ADME, organism-based; parameters: dose 30 mg/kg, route oral
[7] = system: Mus musculus; experiment: Inhibition of SCD activity in high sucrose/fat free diet fed C57/BL6 mouse liver assessed as reduction in conversion of [14C]stearic acid to [14C]oleic acid at 100 mg/kg, po; type: functional
[8] = Drug uptake in C57/BL6 mouse left epididymal fat at 30 mg/kg, po after 6 hrs; type: ADME, organism-based, Epididymal fat pad; parameters: dose 30 mg/kg, route oral; conditions: male, read-out: Drug uptake
[9] = biological target: T3, ATP-binding cassette sub-family C member 2 (Homo sapiens, UniProt Q92887); experiment: Binding affinity to MRP2 expressed in MDCK2 cells coexpressing OATP1B3; type: cell-based; conditions: dog, mdck-ii
[10] = system: Mus musculus; experiment: Inhibition of SCD activity in high sucrose/fat free diet fed C57/BL6 mouse liver assessed as reduction in conversion of [14C]stearic acid to [14C]oleic acid at 30 mg/kg, po; type: functional
[11] = Oral bioavailability in C57/BL6 mouse plasma at 10 mg/kg; type: ADME, organism-based
[12] = system: Nucleic Acid; experiment: Ratio of drug uptake in left median liver lobe to harderian gland in C57/BL6 mouse at 30 mg/kg, po after 6 hrs; type: ADME, organism-based; parameters: dose 30 mg/kg, route oral; conditions: in vivo
[13] = Drug uptake in C57/BL6 mouse kidney at 30 mg/kg, po after 24 hrs; type: ADME, organism-based; parameters: dose 30 mg/kg, route oral; conditions: read-out: Drug uptake
[14] = Plasma concentration in high sucrose/fat free diet fed C57/BL6 mouse at 10 mg/kg, po after 3 hrs; type: ADME, organism-based; parameters: dose 10 mg/kg, route oral
[15] = Drug uptake in C57/BL6 mouse kidney at 30 mg/kg, po after 6 hrs; type: ADME, organism-based; parameters: dose 30 mg/kg, route oral; conditions: read-out: Drug uptake
[16] = Drug uptake in C57/BL6 mouse heart at 30 mg/kg, po after 6 hrs; type: ADME, organism-based; parameters: dose 30 mg/kg, route oral; conditions: read-out: Drug uptake
[17] = Drug uptake in high fat diet fed C57/BL6 mouse eDIO model whole blood at 30 mg/kg, po after 3 hrs; type: ADME, organism-based; parameters: dose 30 mg/kg, route oral; conditions: read-out: Drug uptake
[18] = AUC in Sprague-Dawley rat plasma at 10 mg/kg, po and 2 mg/kg, iv; type: ADME, organism-based
[19] = system: Mus musculus; experiment: Acute antidiabetic activity in high fat diet fed C57/BL6 mouse eDIO model assessed as increase in glucose clearance at 100 mg/kg, po administered 1 hr prior to glucose challenge by oGTT assay; type: functional
[20] = Volume of distribution at steady state in Sprague-Dawley rat at 10 mg/kg, po and 2 mg/kg, iv; type: ADME, organism-based; conditions: in vivo, read-out: Vdss
[21] = Plasma concentration in C57/BL6 mouse at 30 mg/kg, po after 6 hrs; type: ADME, organism-based; parameters: dose 30 mg/kg, route oral
[22] = Plasma clearance in Sprague-Dawley rat at 10 mg/kg, po and 2 mg/kg, iv; type: ADME, organism-based
[23] = biological target: T3, ATP-binding cassette sub-family C member 2; experiment: Binding affinity to MRP2 expressed in MDCK2 cells coexpressing OATP1B1; type: cell-based; conditions: dog, mdck-ii
[24] = Drug uptake in C57/BL6 mouse skin at 30 mg/kg, po after 24 hrs; type: ADME, organism-based, Zone of skin; parameters: dose 30 mg/kg, route oral; conditions: read-out: Drug uptake
[25] = system: HepG2; experiment: Selectivity ratio of IC50 for human SCD1 expressed in human HepG2 cells to IC50 for rat SCD1 in Sprague-Dawley rat hepatocytes; type: cell-based
[26] = Drug uptake in C57/BL6 mouse harderian glands at 30 mg/kg, po after 6 hrs; type: ADME, organism-based, Harderian gland; parameters: dose 30 mg/kg, route oral; conditions: read-out: Drug uptake
[27] = Drug uptake in C57/BL6 mouse heart at 30 mg/kg, po after 24 hrs; type: ADME, organism-based; parameters: dose 30 mg/kg, route oral; conditions: read-out: Drug uptake
[28] = biological target: T4, Stearoyl-CoA desaturase 5 (Homo sapiens, UniProt Q86SK9); experiment: Inhibition of human SCD5
T4 sequence (Q86SK9 whole entry): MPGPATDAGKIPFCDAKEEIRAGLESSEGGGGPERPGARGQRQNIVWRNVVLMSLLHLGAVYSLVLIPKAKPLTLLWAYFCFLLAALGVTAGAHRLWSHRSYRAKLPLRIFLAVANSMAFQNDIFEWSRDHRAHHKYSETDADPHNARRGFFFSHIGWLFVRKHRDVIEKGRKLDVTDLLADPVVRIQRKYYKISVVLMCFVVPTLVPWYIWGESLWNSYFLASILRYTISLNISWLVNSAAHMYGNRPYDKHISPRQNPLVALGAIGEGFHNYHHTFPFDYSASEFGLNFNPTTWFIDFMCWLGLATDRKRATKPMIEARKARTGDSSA

T3 sequence (Q92887 whole entry): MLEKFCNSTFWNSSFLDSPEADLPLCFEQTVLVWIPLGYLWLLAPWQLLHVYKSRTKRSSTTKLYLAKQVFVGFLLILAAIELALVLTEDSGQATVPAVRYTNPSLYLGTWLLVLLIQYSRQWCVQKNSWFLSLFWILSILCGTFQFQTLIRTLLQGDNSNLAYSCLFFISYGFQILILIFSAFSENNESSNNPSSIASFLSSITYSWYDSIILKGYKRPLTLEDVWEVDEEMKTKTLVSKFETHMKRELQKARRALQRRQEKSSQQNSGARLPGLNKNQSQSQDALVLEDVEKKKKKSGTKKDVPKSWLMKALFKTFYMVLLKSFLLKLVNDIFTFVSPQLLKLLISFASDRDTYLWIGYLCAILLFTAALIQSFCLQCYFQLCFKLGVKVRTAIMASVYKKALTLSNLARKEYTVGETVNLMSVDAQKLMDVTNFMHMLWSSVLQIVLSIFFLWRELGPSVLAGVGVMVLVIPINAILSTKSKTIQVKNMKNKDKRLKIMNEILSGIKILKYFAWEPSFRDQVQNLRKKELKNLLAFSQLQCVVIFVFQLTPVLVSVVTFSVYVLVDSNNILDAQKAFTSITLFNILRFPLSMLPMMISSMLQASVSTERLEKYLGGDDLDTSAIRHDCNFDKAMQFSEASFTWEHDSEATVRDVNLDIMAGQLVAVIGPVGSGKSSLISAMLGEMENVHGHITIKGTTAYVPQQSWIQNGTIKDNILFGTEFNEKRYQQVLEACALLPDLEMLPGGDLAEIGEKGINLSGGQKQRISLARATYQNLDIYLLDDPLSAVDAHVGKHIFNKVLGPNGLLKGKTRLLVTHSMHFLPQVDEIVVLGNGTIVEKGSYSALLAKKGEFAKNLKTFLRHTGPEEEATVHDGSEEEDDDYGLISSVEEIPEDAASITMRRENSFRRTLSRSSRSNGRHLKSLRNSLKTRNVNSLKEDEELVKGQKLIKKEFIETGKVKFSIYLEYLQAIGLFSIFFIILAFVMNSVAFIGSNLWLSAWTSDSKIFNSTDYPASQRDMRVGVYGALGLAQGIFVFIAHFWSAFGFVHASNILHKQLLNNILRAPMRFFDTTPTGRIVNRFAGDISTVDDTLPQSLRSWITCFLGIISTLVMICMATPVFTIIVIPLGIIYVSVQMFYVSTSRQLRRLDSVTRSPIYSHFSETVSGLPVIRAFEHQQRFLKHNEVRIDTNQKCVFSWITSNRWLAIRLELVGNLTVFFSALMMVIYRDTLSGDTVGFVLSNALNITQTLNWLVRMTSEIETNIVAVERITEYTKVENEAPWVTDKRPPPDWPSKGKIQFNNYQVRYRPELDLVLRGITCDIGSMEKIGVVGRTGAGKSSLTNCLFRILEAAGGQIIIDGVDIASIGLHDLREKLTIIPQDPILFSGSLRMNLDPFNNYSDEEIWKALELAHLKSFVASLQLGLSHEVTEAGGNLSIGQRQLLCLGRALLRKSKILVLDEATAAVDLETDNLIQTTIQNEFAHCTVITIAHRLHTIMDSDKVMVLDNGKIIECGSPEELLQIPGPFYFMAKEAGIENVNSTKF

IC50 [1]: 6030 nM
IC50 [2]: 175 nM
concentration at 6 h [3]: 55 nM
concentration at 24 h [4]: 45 nM
concentration at 24 h [5]: 5 nM
concentration at 24 h [6]: 5 nM
concentration at 6 h [8]: 111 nM
Activity [9]: Active
bioavailability [11]: 8%
Ratio [12]: > 50
concentration at 24 h [13]: 29 nM
concentration at 3 h [14]: 120 nM
concentration at 6 h [15]: 1920 nM
concentration at 6 h [16]: 333 nM
concentration at 3 h [17]: 320 nM
AUC [18]: 17.8 µM·h
Vd [20]: 0.41 L/kg
concentration at 6 h [21]: 626 nM
clearance [22]: 8.6 mL/min/kg
Activity [23]: Active
concentration at 24 h [24]: 12 nM
concentration at 6 h [26]: 98 nM
concentration at 24 h [27]: 32 nM
IC50 [28]: 4 nM
SMILES: O=C(O)c1cncc(-c2ccc(N3CCC(Oc4cc(F)ccc4Br)CC3)nn2)c1
inhibition in vivo at 100 mg/kg [7]: 86%
inhibition in vivo at 30 mg/kg [10]: 74%
Activity [19]: 90%
Ratio IC50 [25]: 34
